# Measurements published in patent publication US11192877B2, “3-(5-hydroxy-1-oxoisoindolin-2-yl)piperidine-2,6-dione derivatives and uses thereof” (Novartis AG, priority 2018, dated 2021).
# Target: IKZF2 (Helios) (Homo sapiens, UniProt Q96SW2+Q9UKS7)
# Assay: Prolabel quantification of IKZF2 protein levels in 293GT cells
# Type: cell-based
# Conditions: 24 h, Pro-label assay, 293GT cells, 10 μM, read-out: IKZF2 % protein reduction at 10 μM, 24 h
# Sequence of IKZF2 (Helios) (Q9UKS7 whole entry): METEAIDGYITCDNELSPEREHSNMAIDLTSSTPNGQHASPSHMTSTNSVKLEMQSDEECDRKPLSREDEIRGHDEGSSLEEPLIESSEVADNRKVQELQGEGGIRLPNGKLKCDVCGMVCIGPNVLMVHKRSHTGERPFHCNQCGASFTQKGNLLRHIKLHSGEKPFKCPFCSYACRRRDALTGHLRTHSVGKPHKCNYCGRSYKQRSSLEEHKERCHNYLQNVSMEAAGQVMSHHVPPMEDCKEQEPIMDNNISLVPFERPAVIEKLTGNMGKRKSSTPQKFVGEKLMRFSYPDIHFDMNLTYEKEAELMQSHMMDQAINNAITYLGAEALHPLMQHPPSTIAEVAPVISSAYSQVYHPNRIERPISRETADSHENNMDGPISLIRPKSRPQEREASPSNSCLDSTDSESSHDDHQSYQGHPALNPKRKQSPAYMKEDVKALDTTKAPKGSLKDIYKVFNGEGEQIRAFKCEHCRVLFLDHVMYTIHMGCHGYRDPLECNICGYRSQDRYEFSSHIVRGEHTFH
# Sequence of IKZF2 (Helios) (Q96SW2 whole entry): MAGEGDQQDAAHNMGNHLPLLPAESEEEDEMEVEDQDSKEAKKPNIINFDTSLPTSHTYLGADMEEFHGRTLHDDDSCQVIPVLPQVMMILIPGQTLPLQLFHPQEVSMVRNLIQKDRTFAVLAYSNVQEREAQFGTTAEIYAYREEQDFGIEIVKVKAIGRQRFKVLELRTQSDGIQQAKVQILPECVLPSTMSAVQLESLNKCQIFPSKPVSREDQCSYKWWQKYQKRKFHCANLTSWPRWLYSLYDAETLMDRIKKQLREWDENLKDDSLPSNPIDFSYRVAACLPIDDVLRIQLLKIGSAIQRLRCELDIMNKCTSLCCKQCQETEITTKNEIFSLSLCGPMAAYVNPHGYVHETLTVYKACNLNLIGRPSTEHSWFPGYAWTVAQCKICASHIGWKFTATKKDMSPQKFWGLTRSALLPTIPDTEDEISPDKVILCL
# Sequence of IKZF2 (Helios) (Q16531 whole entry partner): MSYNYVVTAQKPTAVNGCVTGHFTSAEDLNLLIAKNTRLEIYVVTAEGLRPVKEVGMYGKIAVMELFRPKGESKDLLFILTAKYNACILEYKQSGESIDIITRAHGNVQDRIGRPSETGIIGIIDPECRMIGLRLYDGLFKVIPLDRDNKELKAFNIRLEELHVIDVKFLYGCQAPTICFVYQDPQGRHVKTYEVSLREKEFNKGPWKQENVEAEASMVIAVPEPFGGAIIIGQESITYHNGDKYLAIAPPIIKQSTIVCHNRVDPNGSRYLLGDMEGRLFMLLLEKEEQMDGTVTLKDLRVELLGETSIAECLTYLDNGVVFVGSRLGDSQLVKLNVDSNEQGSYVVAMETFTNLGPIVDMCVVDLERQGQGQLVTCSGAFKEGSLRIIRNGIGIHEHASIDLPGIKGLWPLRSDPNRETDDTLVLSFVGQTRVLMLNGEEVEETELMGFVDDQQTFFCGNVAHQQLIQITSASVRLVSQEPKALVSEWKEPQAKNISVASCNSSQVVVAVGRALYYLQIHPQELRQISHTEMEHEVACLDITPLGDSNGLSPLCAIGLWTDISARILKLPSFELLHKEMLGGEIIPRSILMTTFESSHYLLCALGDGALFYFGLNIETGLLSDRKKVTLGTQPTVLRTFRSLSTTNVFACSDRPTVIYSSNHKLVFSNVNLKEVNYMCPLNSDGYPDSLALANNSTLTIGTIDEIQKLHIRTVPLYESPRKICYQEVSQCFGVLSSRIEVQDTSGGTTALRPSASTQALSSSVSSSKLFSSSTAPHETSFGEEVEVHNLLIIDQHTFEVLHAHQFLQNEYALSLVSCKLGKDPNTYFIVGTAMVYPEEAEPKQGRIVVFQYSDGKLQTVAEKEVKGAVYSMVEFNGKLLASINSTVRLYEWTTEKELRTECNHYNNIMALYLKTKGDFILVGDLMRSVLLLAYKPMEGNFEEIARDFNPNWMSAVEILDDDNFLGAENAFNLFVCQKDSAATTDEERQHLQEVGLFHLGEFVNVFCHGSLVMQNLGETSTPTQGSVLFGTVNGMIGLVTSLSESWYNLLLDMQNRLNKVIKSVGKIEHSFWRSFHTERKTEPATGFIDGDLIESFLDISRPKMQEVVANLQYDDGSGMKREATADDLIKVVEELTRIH
row,IKZF2 % protein reduction at 10 µM [%],SMILES
1,0,"O=C1CCC(N2Cc3cc(O[C@H]4CCCC[C@@H]4N(Cc4ccccc4)Cc4ccccc4)ccc3C2=O)C(=O)N1 (stereo partly drawn) [I-34, 3-(5-(((1S,2S)-2-(dibenzylamino)cyclohexyl)oxy)-1-oxoisoindolin-2-yl)piperidine-2,6-dione]"
2,10,"CCN(CC)[C@H]1CCCC[C@H]1Oc1ccc2c(c1)CN(C1CCC(=O)NC1=O)C2=O (stereo partly drawn) [I-35, 3-(5-(((1R,2S)-2-(diethylamino)cyclohexyl)oxy)-1-oxoisoindolin-2-yl)piperidine-2,6-dione]"
3,80,"CN[C@H]1CCCC[C@@H]1Oc1ccc2c(c1)CN(C1CCC(=O)NC1=O)C2=O (stereo partly drawn) [I-36, 3-(5-(((1S,2S)-2-(methylamino)cyclohexyl)oxy)-1-oxoisoindolin-2-yl)piperidine-2,6-dione]"
4,86,"CC1(C#N)CCN([C@H]2CCC[C@@H]2Oc2ccc3c(c2)CN(C2CCC(=O)NC2=O)C3=O)CC1 (stereo partly drawn) [I-38, 1-((1S,2S)-2-((2-(2,6-dioxopiperidin-3-yl)-1-oxoisoindolin-5-yl)oxy)cyclopentyl)-4-methylpiperidine-4-carbonitrile]"
5,57,"CN(Cc1ccccc1)[C@H]1CCCC[C@@H]1Oc1ccc2c(c1)CN(C1CCC(=O)NC1=O)C2=O (stereo partly drawn) [I-39, 3-(5-(((1S,2S)-2-(benzyl(methyl)amino)cyclohexyl)oxy)-1-oxoisoindolin-2-yl)piperidine-2,6-dione]"
6,0,"CCN(CC)[C@@H]1CCC[C@H]1Oc1ccc2c(c1)CN(C1CCC(=O)NC1=O)C2=O (stereo partly drawn) [I-43, 3-(5-(((1R,2R)-2-(diethylamino)cyclopentyl)oxy)-1-oxoisoindolin-2-yl)piperidine-2,6-dione]"
7,0,"N[C@H]1COC[C@@H]1Oc1ccc2c(c1)CN(C1CCC(=O)NC1=O)C2=O (stereo partly drawn) [I-46, 3-(5-(((3R,4S)-4-aminotetrahydrofuran-3-yl)oxy)-1-oxoisoindolin-2-yl)piperidine-2,6-dione]"
8,11,"CCN(CC)[C@H]1COC[C@@H]1Oc1ccc2c(c1)CN(C1CCC(=O)NC1=O)C2=O (stereo partly drawn) [I-47, 3-(5-(((3R,4S)-4-(diethylamino)tetrahydrofuran-3-yl)oxy)-1-oxoisoindolin-2-yl)piperidine-2,6-dione]"
9,89,"CCOC1CN([C@H]2CCCC[C@@H]2Oc2ccc3c(c2)CN(C2CCC(=O)NC2=O)C3=O)C1 (stereo partly drawn) [I-48, 3-(5-(((1S,2S)-2-(3-ethoxyazetidin-1-yl)cyclohexyl)oxy)-1-oxoisoindolin-2-yl)piperidine-2,6-dione]"
10,86,"O=C1CCC(N2Cc3cc(O[C@H]4CCCC[C@@H]4N4CC(OCC(F)(F)F)C4)ccc3C2=O)C(=O)N1 (stereo partly drawn) [I-49, 3-(1-oxo-5-(((1S,2S)-2-(3-(2,2,2-trifluoroethoxy)azetidin-1-yl)cyclohexyl)oxy)isoindolin-2-yl)piperidine-2,6-dione]"
11,85,"O=C1CCC(N2Cc3cc(O[C@H]4CCCC[C@@H]4N4CC(OCC(F)F)C4)ccc3C2=O)C(=O)N1 (stereo partly drawn) [I-50, 3-(5-(((1S,2S)-2-(3-(2,2-difluoroethoxy)azetidin-1-yl)cyclohexyl)oxy)-1-oxoisoindolin-2-yl)piperidine-2,6-dione]"
12,90,"O=C1CCC(N2Cc3cc(O[C@H]4CCCC[C@@H]4N4CC(OCC5CC5)C4)ccc3C2=O)C(=O)N1 (stereo partly drawn) [I-51, 3-(5-(((1S,2S)-2-(3-(cyclopropylmethoxy)azetidin-1-yl)cyclohexyl)oxy)-1-oxoisoindolin-2-yl)piperidine-2,6-dione]"
13,89,"O=C1CCC(N2Cc3cc(O[C@H]4CCC[C@@H]4N4CC(OCc5ccccc5)C4)ccc3C2=O)C(=O)N1 (stereo partly drawn) [I-52, 3-(5-(((1S,2S)-2-(3-(benzyloxy)azetidin-1-yl)cyclopentyl)oxy)-1-oxoisoindolin-2-yl)piperidine-2,6-dione]"
14,88,"CC(C)OC1CN([C@H]2CCCC[C@@H]2Oc2ccc3c(c2)CN(C2CCC(=O)NC2=O)C3=O)C1 (stereo partly drawn) [I-53, 3-(5-(((1S,2S)-2-(3-isopropoxyazetidin-1-yl)cyclohexyl)oxy)-1-oxoisoindolin-2-yl)piperidine-2,6-dione]"
15,91,"O=C1CCC(N2Cc3cc(O[C@H]4CCCC[C@@H]4N4CC(OCc5ccccc5)C4)ccc3C2=O)C(=O)N1 (stereo partly drawn) [I-54, 3-(5-(((1S,2S)-2-(3-(benzyloxy)azetidin-1-yl)cyclohexyl)oxy)-1-oxoisoindolin-2-yl)piperidine-2,6-dione]"
16,91,"CCOC1CN([C@H]2CCCCC[C@@H]2Oc2ccc3c(c2)CN(C2CCC(=O)NC2=O)C3=O)C1 (stereo partly drawn) [I-55, 3-(5-(((1S,2S)-2-(3-ethoxyazetidin-1-yl)cycloheptyl)oxy)-1-oxoisoindolin-2-yl)piperidine-2,6-dione]"
17,61,"COC1(C)CCN([C@H]2CCCCC[C@@H]2Oc2ccc3c(c2)CN(C2CCC(=O)NC2=O)C3=O)CC1 (stereo partly drawn) [I-60, 3-(5-(((1S,2S)-2-(4-methoxy-4-methylpiperidin-1-yl)cycloheptyl)oxy)-1-oxoisoindolin-2-yl)piperidine-2,6-dione]"
18,84,"CC(C)CN[C@H]1CCCCC[C@@H]1Oc1ccc2c(c1)CN(C1CCC(=O)NC1=O)C2=O (stereo partly drawn) [I-61, 3-(5-(((1S,2S)-2-(isobutylamino)cycloheptyl)oxy)-1-oxoisoindolin-2-yl)piperidine-2,6-dione]"
19,88,"CCCN[C@H]1CCCCC[C@@H]1Oc1ccc2c(c1)CN(C1CCC(=O)NC1=O)C2=O (stereo partly drawn) [I-62, 3-(1-oxo-5-(((1S,2S)-2-(propylamino)cycloheptyl)oxy)isoindolin-2-yl)piperidine-2,6-dione]"
20,85,"O=C1CCC(N2Cc3cc(O[C@H]4CCCCC[C@@H]4N4CC5(COC5)C4)ccc3C2=O)C(=O)N1 (stereo partly drawn) [I-63, 3-(5-(((1S,2S)-2-(2-oxa-6-azaspiro[3.3]heptan-6-yl)cycloheptyl)oxy)-1-oxoisoindolin-2-yl)piperidine-2,6-dione]"
21,84,"CO[C@H]1CC[C@H](CN[C@H]2CCCCC[C@@H]2Oc2ccc3c(c2)CN(C2CCC(=O)NC2=O)C3=O)CC1 (stereo partly drawn) [I-64, 3-(5-(((1S,2S)-2-((((1r,4S)-4-methoxycyclohexyl)methyl)amino)cycloheptyl)oxy)-1-oxoisoindolin-2-yl)piperidine-2,6-dione]"
22,76,"O=C1CCC(N2Cc3cc(O[C@H]4CCCCC[C@@H]4NCC4CCOCC4)ccc3C2=O)C(=O)N1 (stereo partly drawn) [I-65, 3-(1-oxo-5-(((1S,2S)-2-(((tetrahydro-2H-pyran-4-yl)methyl)amino)cycloheptyl)oxy)isoindolin-2-yl)piperidine-2,6-dione]"
23,81,"CC1(CN[C@H]2CCCCC[C@@H]2Oc2ccc3c(c2)CN(C2CCC(=O)NC2=O)C3=O)COC1 (stereo partly drawn) [I-66, 3-(5-(((1S,2S)-2-(((3-methyloxetan-3-yl)methyl)amino)cycloheptyl)oxy)-1-oxoisoindolin-2-yl)piperidine-2,6-dione]"
24,74,"O=C1CCC(N2Cc3cc(O[C@H]4CCCCC[C@@H]4NCC45CC(F)(C4)C5)ccc3C2=O)C(=O)N1 (stereo partly drawn) [I-67, 3-(5-(((1S,2S)-2-(((3-fluorobicyclo[1.1.1]pentan-1-yl)methyl)amino)cycloheptyl)oxy)-1-oxoisoindolin-2-yl)piperidine-2,6-dione]"
25,90,"COC1CN([C@H]2CCCCC[C@@H]2Oc2ccc3c(c2)CN(C2CCC(=O)NC2=O)C3=O)C1 (stereo partly drawn) [I-68, 3-(5-(((1S,2S)-2-(3-methoxyazetidin-1-yl)cycloheptyl)oxy)-1-oxoisoindolin-2-yl)piperidine-2,6-dione]"
26,84,"O=C1CCC(N2Cc3cc(O[C@H]4CCCCC[C@@H]4NCC4CC(F)(F)C4)ccc3C2=O)C(=O)N1 (stereo partly drawn) [I-69, 3-(5-(((1S,2S)-2-(((3,3-difluorocyclobutyl)methyl)amino)cycloheptyl)oxy)-1-oxoisoindolin-2-yl)piperidine-2,6-dione]"
27,88,"CCCN[C@H]1CCCC[C@@H]1Oc1ccc2c(c1)CN(C1CCC(=O)NC1=O)C2=O (stereo partly drawn) [I-71, 3-(1-oxo-5-(((1S,2S)-2-(propylamino)cyclohexyl)oxy)isoindolin-2-yl)piperidine-2,6-dione]"
28,57,"CCCN(CCC)[C@H]1CCCC[C@@H]1Oc1ccc2c(c1)CN(C1CCC(=O)NC1=O)C2=O (stereo partly drawn) [I-72, 3-(5-(((1S,2S)-2-(dipropylamino)cyclohexyl)oxy)-1-oxoisoindolin-2-yl)piperidine-2,6-dione]"
29,66,"O=C1CCC(N2Cc3cc(O[C@H]4CCCC[C@@H]4NCc4ccncc4)ccc3C2=O)C(=O)N1 (stereo partly drawn) [I-73, 3-(1-oxo-5-(((1S,2S)-2-((pyridin-4-ylmethyl)amino)cyclohexyl)oxy)isoindolin-2-yl)piperidine-2,6-dione]"
30,58,"O=C1CCC(N2Cc3cc(O[C@H]4CCCC[C@@H]4N4CC5(COC5)C4)ccc3C2=O)C(=O)N1 (stereo partly drawn) [I-74, 3-(5-(((1S,2S)-2-(2-oxa-6-azaspiro[3.3]heptan-6-yl)cyclohexyl)oxy)-1-oxoisoindolin-2-yl)piperidine-2,6-dione]"

row,SMILES,IKZF2 % protein reduction at 10 µM [%]
1,"O=C1CCC(N2Cc3cc(O[C@H]4CCCC[C@@H]4N4CC(OC5CC(F)(F)C5)C4)ccc3C2=O)C(=O)N1 (stereo partly drawn) [I-56, 3-(5-(((1S,2S)-2-(3-(3,3-difluorocyclobutoxy)azetidin-1-yl)cyclohexyl)oxy)-1-oxoisoindolin-2-yl)piperidine-2,6-dione]",91

# Same assay, conditions: 24 h, read-out: IKZF2 % protein reduction at 10 μM, 24 h
row,SMILES,IKZF2 % protein reduction at 10 µM [%]
1,"CCN[C@H]1CCCCC[C@@H]1Oc1ccc2c(c1)CN(C1CCC(=O)NC1=O)C2=O (stereo partly drawn) [I-57, 3-(5-(((1S,2S)-2-(ethylamino)cycloheptyl)oxy)-1-oxoisoindolin-2-yl)piperidine-2,6-dione]",80
2,"O=C1CCC(N2Cc3cc(O[C@H]4CCCCC[C@@H]4NCc4ccccc4)ccc3C2=O)C(=O)N1 (stereo partly drawn) [I-58, 3-(5-(((1S,2S)-2-(benzylamino)cycloheptyl)oxy)-1-oxoisoindolin-2-yl)piperidine-2,6-dione]",75
3,"CCN(CC)[C@H]1CCCCC[C@@H]1Oc1ccc2c(c1)CN(C1CCC(=O)NC1=O)C2=O (stereo partly drawn) [I-59, 3-(5-(((1S,2S)-2-(diethylamino)cycloheptyl)oxy)-1-oxoisoindolin-2-yl)piperidine-2,6-dione]",39
